Marks after values point to notes of the source that are not given here.
Columns and labels:
[1] = Pectoral muscle glycogen analysis after intraamniotic administration; format: in vivo, Gallus gallus; settings: for Average Glycogen: day 17, pectoral muscle at hatch
Experimental: Cornish-cross fertile broiler eggs (Gallus gallus, n = 39) were obtained from a commercial hatchery (Moyer’s chicks, Quakertown, PA, USA). The eggs were incubated under optimal conditions at the Cornell University Animal Science Poultry Farm Incubator [18]. All animal protocols were approved by Cornell University Institutional Animal Care and Use committee (IACUC #2020-0077). At day 17 of embryonic incubation, eggs containing viable embryos were weighed and divided into 5 groups, with all treatment groups assigned eggs of similar weight frequency distribution. Each group was then injected with the specific solution (1 mL per egg) with a 21-gauge needle into the amniotic fluid. Treatments in powder form were separately diluted in DI H2O. Two treatment groups (1.25, 2.5 wt. %), two controls (H2O and non-injected), and a positive control (5 wt. % inulin) were administered. After injection, the injection holes were sealed with cellophane tape and the eggs were placed in hatching baskets such that each treatment was equally represented at each incubator location. Immediately upon hatch (day 21), blood was taken for hemoglobin determination and all chicks were then euthanized by CO2 exposure. The small intestine, pectoral muscle, cecum, and liver were collected, immediately frozen in liquid nitrogen, and then stored in a -80° C. freezer until analysis.
Glycogen analysis was obtained from pectoralis muscle as previously described. Briefly, the frozen pectoral muscle samples were homogenized in 8 wt. % perchloric acid. Samples were then centrifuged at 12,000 × g for 15 minutes. The supernatant was removed, and 1.0 mL of petroleum ether was added to each tube. After mixing, the petroleum ether fraction was removed and samples from the bottom layer were transferred to a 96-well plate containing 300 µL of color reagent. All samples were read at a wavelength of 450 nm in an ELISA reader and the amount of glycogen was calculated according to a standard curve. The amount of glycogen present in pectoral sample was determined by multiplying the weight of the tissue by the amount of glycogen per 1 g of wet tissue.

ZIP6 = experiment: Duodenal gene expression by RT-qPCR: ZIP6; format: in vivo, Gallus gallus; settings: 2.5 wt. % genistein vs all other treatment groups, p < 0.05; duodenum
Experimental: Cornish-cross fertile broiler eggs (Gallus gallus, n = 39) were obtained from a commercial hatchery (Moyer’s chicks, Quakertown, PA, USA). The eggs were incubated under optimal conditions at the Cornell University Animal Science Poultry Farm Incubator [18]. All animal protocols were approved by Cornell University Institutional Animal Care and Use committee (IACUC #2020-0077). At day 17 of embryonic incubation, eggs containing viable embryos were weighed and divided into 5 groups, with all treatment groups assigned eggs of similar weight frequency distribution. Each group was then injected with the specific solution (1 mL per egg) with a 21-gauge needle into the amniotic fluid. Treatments in powder form were separately diluted in DI H2O. […]
Total RNA was extracted from 30 mg of the proximal duodenal (n=6) or liver tissues (n=6) using Qiagen RNeasy Mini Kit (Qiagen Inc., Valencia, CA) according to the manufacturer’s protocol. […] RNA was quantified by absorbance at 260-280 nm using a NanoDrop 2000 (ThermoFisher Scientific, Waltham, MA). […]
As previously described. cDNA was generated using a 20 uL reverse transcriptase (RT) reaction in a BioRad C1000 touch thermocycler using the Improm-II Reverse Transcriptase Kit (Catalog #A1250; Promega, Madison, WI, USA). […] Genomic DNA contamination was assessed using a RT-PCR assay for the reference of genes samples. […]

O=c1c(-c2ccc(O)cc2)coc2cc(O)cc(O)c12 [Genistein, genistein]
Average Glycogen ([1]; 1.25 wt. % genistein intraamniotic): 0.008 ± 0.003 ^ab mg/g
Average Glycogen ([1]; 2.5 wt. % genistein intraamniotic): 0.015 ± 0.004 ^a mg/g
Average glycogen vs control ([1]; genistein treated groups vs no injection, p > 0.05): no significant difference
Gene expression of ZIP6 (ZIP6): significantly downregulated

— US20230364051A1, “FORMULATIONS AND METHODS FOR IMPROVING AVIAN HEALTH” (CORNELL UNIVERSITY, priority 2022, published 2023)
